The numbers were not newly measured in patent publication US10441569B2, “Self-emulsifying formulations of DIM-related indoles” (BioResponse, L.L.C., priority 2015, dated 2019), which cites them from elsewhere.

A word on the log P: it is a log measure of how a compound divides between an organic and an aqueous phase.

For this series the following is noted: cited from earlier work; for log P: no own measurement; for Log P of 2nd API drug: table of exemplary 2nd API drugs.

As for `CC(O)(CS(=O)(=O)c1ccc(F)cc1)C(=O)Nc1ccc(C#N)c(C(F)(F)F)c1` (stereo not shown) [Biculatamide, Bicalutamide], the log partition coefficient (log P) was 4.94.
On to `CC1=C(/C=C/C(C)=C/C=C/C(C)=C\C(=O)O)C(C)(C)CCC1` [isotretinoin, 13-cis retinoic acid], for which the log partition coefficient (log P) is on record as 6.83.
As to Vitamin D, the “log P” value is reported as 7.5.
Consider `COc1cc2ncnc(Nc3ccc(F)c(Cl)c3)c2cc1OCCCN1CCOCC1` [Gefitinib, N-(3-chloro-4-fluoro-phenyl)-7-methoxy-6-(3-morpholin-4-ylpropoxy)quinazolin-4-amine], for which the “log P” value is listed as 3.72 and the “Log P of 2nd API drug” value is listed as 3.72.
Turning to `CNC(=O)c1cccc2cc(Oc3ccnc4cc(OCC5(N)CC5)c(OC)cc34)ccc12` [Lucitanib, 6-[7-[(1-aminocyclopropyl)methoxy]-6-methoxyquinolin-4-yl]oxy-N-methylnaphthalene-1-carboxamide], the “log P” value is 3.81 and the “Log P of 2nd API drug” value is 3.81.
For the compound `CC(C)=CCC/C(C)=C/CC/C(C)=C/CC/C(C)=C/CC1=C(C)C(=O)c2ccccc2C1=O` [menaquinone-4], the “log P” value is listed as 10-12.
Consider `CCCCCCCCCCCCCCCC(=O)OC/C=C(C)/C=C/C=C(C)/C=C/C1=C(C)CCCC1(C)C` [Retinyl palmitate, Retinyl Palmitate], for which the “log P” value was 5.68.
Take `COc1cc(C)c(/C=C/C(C)=C/C=C/C(C)=C/C(=O)O)c(C)c1C` [acitretin]: the “log P” value is recorded as 5.73.
